Data from US12090204B2, “Photodynamic therapy compositions and methods of use thereof” (Pinnacle Biologics, Inc., priority 2020, dated 2024).

Legend:
[1] = system: B. thurigiensis (+); experiment: porfimer sodium aPDT, planktonic culture; format: cell-based, Bacillus thuringiensis; conditions: 630 nm, 200 J/cm2, porfimer sodium 125 μg/mL
Procedure: (§1) Bacteria were routinely cultured using tryptic soy broth or agar at 37° C. in a 5% CO2 incubator. Bacteria were isolated and suspended with 0.9% NaCl to an Optical Density (OD) of 0.1 taken at 630 nm, to generate the inoculum used for either planktonic or biofilm assays.
Experiments using planktonic cultures were carried out using M. catarrhalis, as a standard for further comparisons and to determine the effective drug concentration, porfimer sodium incubation time and light dose parameters which would provide an effective cell kill at the level of 5-7 logs. Once determined the experiments were repeated for all other bacterial strains examined.
The colony forming units (CFU) per mL of the starting inoculum for every experiment was determined by dilution plating. […]
(§2) Bacteria were exposed to 630 nm laser light via a fiber optic with a lens affixed to the distal end to provide a uniform diverging light field. […] Power output of the laser was measured using a UDT/Gamma Scientific 371 optical power meter and an integrating sphere. […]
(§3) Biofilms were formed on glass coupons in culture dishes containing a bacterial inoculum for 48 hours under conditions specific to the strain. […] Power output of the laser was measured using a UDT/Gamma Scientific 371 optical power meter and an integrating sphere. […]

[2] = system: MRSA (+); experiment: porfimer sodium aPDT, 48 hour biofilm culture; format: cell-based, methicillin-resistant Staphylococcus aureus; conditions: 630 nm, kill at 100 J/cm2 (light dose 75-100 J/cm2), porfimer sodium 250 μg/mL
Procedure: as §1
(§4) The colony forming units (CFU) per mL of the starting inoculum for every experiment was determined by dilution plating. Control samples were exposed to laser at 630 nm in the absence of porfimer sodium, porfimer sodium in the absence of laser exposure, or in saline alone in the absence of porfimer sodium and 630 nm laser light. All experimental samples were dilution plated to enumerate viable CFU's. Three independent replicates were performed for each reaction condition per strain per assay. […]
as §2, §3

[3] = system: P. gingivalis (−); experiment: porfimer sodium aPDT, 48 hour biofilm culture; format: cell-based, Porphyromonas gingivalis; conditions: 630 nm, kill at 100 J/cm2 (light dose 75-100 J/cm2), porfimer sodium 250 μg/mL
Procedure: as §1, §4, §2, §3

[4] = format: in vivo, Yorkshire pigs; conditions: abraded wounds, Example 3
Source text: This study evaluated the antimicrobial activity and local safety of porfimer sodium when applied to abraded wounds in Yorkshire pigs.
On Day −2 of the study, pigs were anesthetized and the skin aseptically prepared. Superficial wounds were created using the tape strip method until punctate bleeding was observed. Also on Day −2, eight wounds per pig were inoculated with one of three bacterial cultures (Haemophilus influenza, Moraxella catarrhalis, or Staphylococcus aureus) at a concentration of 10^7-10^8 CFUs per mL. There were two control sites on each side. […] The wounds were covered, analgesia in the form of buprenorphine (IM, 0.03 mg/kg) was provided, and the animals were recovered from anesthesia.

[5] = conventional reconstituted porfimer sodium, comparison statement; cited from earlier work

For porfimer sodium, which Rate of kill [1] is on record?
The Rate of kill was over 6Log.

And the Rate of kill [2]?
Its Rate of kill is 7Log.

And the Rate of kill [3]?
The Rate of kill was 7Log.

What about the “histopathological observations, treated sites vs control sites” value [4] of the same substance?
Its value is “no significant difference between treated sites and control sites”.

And the “time stable when reconstituted with saline” value [5]?
Its value is 24 h.
